# Results published in US11203610B2, “2′3′ cyclic dinucleotides with phosphonate bond activating the sting adaptor protein” (INSTITUTE OF ORGANIC CHEMISTRY AND BIOCHEMISTRY ASCR, V.V.I., priority 2017, dated 2021).
# Legend:
# WT STING [1] = target: T1, WT STING (Homo sapiens, UniProt Q86WV6, H232R); assay: Digitonin assay using 293T wtSTING-FL reporter cells; type: cell-based; details: 293T wtSTING-FL cells; 30 minutes in Digitonin buffer, then 5 hours; ISRE firefly luciferase reporter; 8-point dose-response curve; read-out: Digitonin assay EC50 (μmol · l^−1) WT STING
# Description: ISRE Reporter Plasmid (pGL64.27-4xISRE)
# Two complementary oligonucleotides of the sequence […] […] […] […] […] The oligonucleotides were mixed in equal molar amounts, hybridized, and cleaved by restriction endonucleases HindIII (cat. #. R0104S, NEB, Ipswich, USA) and BglII (cat. #R0144S, NEB, Ipswich, USA). Ultimately, they were ligated into plasmid pGL4.27 (cat. #E6651, Promega, Madison, USA) linearized with the same enzymes. As result the sequence with four ISRE sites was placed upstream of the minimum promoter of firefly luciferase reporter gene.
# After 5 minutes incubation at room temperature (RT), 250 μL of the mixture was added dropwise to the cells in one well. Cells were incubated 36 hours at 37° C. with 5% CO2, and then detached with 0.05% Trypsin and 0.22 g/L EDTA (both cat. #L0941, Biowest, Riverside, USA).
# Transfected cells were seeded onto poly-D-lysine coated six well plates at density 50,000 cells per 1 cm^2 in DMEM medium with high glucose containing 10% heat inactivated FBS, 30 g/mL blasticidin (cat. #ant-bl-05, InvivoGen, San Diego, USA), 0.06 mg/ml Penicillin G and 0.1 mg/ml Streptomycin Sulfate (both cat. #. L0018, Biowest, Riverside, USA). The medium was replenished every 3-4 days until visible colonies of cells resistant to blasticidin were formed.
# Blasticidin resistant cells stably expressing WT STING were further transfected with […] plasmid following the same procedure as described above. […] Homogeneous culture of stably double transfected cells was prepared by limiting dilution of cells in 96 well plates and wells with cells were selected that originated from a single cell.
# The medium was removed next day and three fold serial dilutions of compounds in Digitonin buffer containing 50 mmol·l^−1 HEPES (cat. #H3375, Sigma Aldrich, Czech Republic) pH 7.0, 100 mmol·l^−1 KCl, 3 mmol·l^−1 MgCl2, 0.1 mmol·l^−1 DTT (cat. #D0632, Sigma Aldrich, Czech Republic), 85 mmol·l^−1 Sucrose (cat. #S7903, Sigma Aldrich, Czech Republic), 0.2% BSA (cat. #A2153, Sigma Aldrich, Czech Republic), 1 mmol·l^−1 ATP (cat. #A1852, Sigma Aldrich, Czech Republic), 0.1 mmol·l^−1 GTP (cat. #G8877, Sigma Aldrich, Czech Republic), and 10 μg/mL Digitonin A (cat. #D141, Sigma Aldrich, Czech Republic) were added to the cells. The buffer was removed after 30 minutes incubation at 37° C. with 5% CO2, the cells were washed once with 100 μl of cultivation medium, and 100 μl of medium was added to each well. The plates with cells were incubated for 5 hours at 37° C. with 5% CO2, 50 μl of the medium was removed and 30 μl of ONE-Glo™ Luciferase Assay System reagent (cat. #E6120, Promega, Madison, USA) was added to each well. Luminescence was read on Synergy H1 (Biotek, Winooski, USA).
# Target sequence in this assay (Q86WV6 whole entry H232R): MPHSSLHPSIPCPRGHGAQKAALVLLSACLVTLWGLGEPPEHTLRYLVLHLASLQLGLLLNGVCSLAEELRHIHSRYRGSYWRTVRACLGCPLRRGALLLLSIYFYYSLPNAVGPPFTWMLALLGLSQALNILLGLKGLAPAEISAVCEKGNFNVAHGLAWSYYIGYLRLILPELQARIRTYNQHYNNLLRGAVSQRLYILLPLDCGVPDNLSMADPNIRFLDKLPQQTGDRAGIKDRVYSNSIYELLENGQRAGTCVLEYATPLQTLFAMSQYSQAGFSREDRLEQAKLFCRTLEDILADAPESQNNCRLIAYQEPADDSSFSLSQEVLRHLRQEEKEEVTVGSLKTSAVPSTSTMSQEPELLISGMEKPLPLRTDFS
# AQ STING (G230A-R293Q) = target: T2, AQ STING (G230A-R293Q) (Homo sapiens, UniProt Q86WV6, G230A/H232R/R293Q); assay: Differential Scanning Fluorimetry with AQ STING; type: binding; details: thermal shift vs STING apoprotein, 150 μM CDN, 0.1 mg/ml truncated human AQ STING, SYPRO Orange; for ΔTm at 150 µM: read-out: DSF ΔTm (° C.) AQ STING
# T2 construct: truncated human WT STING or AQ STING (amino acid residues 140-343); 8xHis (N, cleaved yes); SUMO (N, cleaved yes); made in house; host or cells: E. coli Rosetta-gami B (DE3)
# Description: (§1) WT STING and AQ STING Proteins
# (§2) Purified PCR products were cleaved with restriction enzymes BamHI (cat. #R0136S, NEB, Ipswich, USA) and NotI (cat. #R0189S, NEB, Ipswich, USA) and cloned into the pSUMO vector linearized with the identical enzymes.
# (§3) The resin was poured into a chromatography column, washed with 50 ml buffer A (50 mmol·l^−1 TrisCl (pH 8.0), 800 mmol·l^−1 NaCl, 3 mmol·l^−1 β-mercaptol; 10% glycerol; 20 mmol·l^−1 imidazole) and 8-His-SUMO tagged STING proteins were eluted with 15 ml buffer A containing 300 mmol·l^−1 imidazole. […] Proteins were concentrated with Amicon® Ultra-15 10 K device (cat. #UFC901008, Merck Millipore, Billerica, USA) and flash frozen in liquid N2.
# (§4) Differential Scanning Fluorimetry with WT STING and AQ STING
# (§5) 20 μL solutions of the reaction mixtures were pipetted in triplicates into 96 well optical reaction plates and thermal denaturation of samples were performed on real time PCR cycler (LightCycler® 480 Instrument II—Roche, Basel, Switzerland). The first derivative of the thermal denaturation curves was performed to calculate denaturing temperatures of STING—CDN complexes and STING apoproteins. The thermal shift for each CDN was calculated by subtracting the average denaturing temperature of STING apoprotein from the average denaturing temperature of STING CDN complex.
# WT STING [2] = target: T1, WT STING; assay: Differential Scanning Fluorimetry with WT STING; type: binding; design: truncated human WT STING or AQ STING (amino acid residues 140-343); 8xHis (N, cleaved yes); SUMO (N, cleaved yes); made in house; host or cells: E. coli Rosetta-gami B (DE3); details: thermal shift vs STING apoprotein, 150 μM CDN, 0.1 mg/ml truncated human WT STING, SYPRO Orange; for ΔTm at 150 µM: read-out: DSF ΔTm (° C.) WT STING
# Description: as §1, §2, §3, §4, §5
# Target sequence in this assay (Q86WV6 140-343 H232R): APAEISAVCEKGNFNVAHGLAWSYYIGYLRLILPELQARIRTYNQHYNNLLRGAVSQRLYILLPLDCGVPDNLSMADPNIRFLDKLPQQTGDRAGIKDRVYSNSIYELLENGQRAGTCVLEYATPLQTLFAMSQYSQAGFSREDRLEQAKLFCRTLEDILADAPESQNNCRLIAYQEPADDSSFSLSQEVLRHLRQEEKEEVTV
# T2 sequence (Q86WV6 140-343 G230A/H232R/R293Q): as the sequence (Q86WV6 140-343 H232R) above, with G91A, R154Q counted along it
Compound,EC50 (WT STING [1]),DSF ΔTm (° C.) AQ STING (AQ STING (G230A-R293Q)),DSF ΔTm (° C.) WT STING (WT STING [2]),ΔTm at 150 µM (AQ STING (G230A-R293Q)),ΔTm at 150 µM (WT STING [2])
"1R,6R,8R,9R,10R,15R,17R,18S)-8,17-bis(6-amino-9H-purin-9-yl)-9-fluoro-3,12,18-trihydroxy-2,4,7,11,14,16-hexaoxa-3λ^5,12λ^5-diphosphatricyclo[13.2.1.0^6,^10]octadecane-3,12-dione [Compound 34]",0.7 µM,8.5 °C,2.6 °C,,
"Nc1nc2c(ncn2[C@@H]2O[C@@H]3COP(=O)(O)O[C@@H]4[C@H](O)[C@@H](COP(=O)(O)O[C@@H]2[C@@H]3O)O[C@H]4n2cnc3c(N)ncnc32)c(=O)[nH]1 [2′2′-cGAMP, reference compound]",0.03 µM,19.4 °C,11.5 °C,,
"Nc1ncnc2c1ncn2[C@@H]1O[C@@H]2COP(=O)(O)O[C@H]3[C@@H](O)[C@H](n4cnc5c(N)ncnc54)O[C@@H]3COP(=O)(O)O[C@H]2[C@H]1O [3′3′c-di-AMP, reference compound]",0.3 µM,9.3 °C,2.6 °C,,
"Nc1nc2c(ncn2[C@@H]2O[C@@H]3COP(=O)(O)O[C@H]4[C@@H](O)[C@H](n5cnc6c(=O)[nH]c(N)nc65)O[C@@H]4COP(=O)(O)O[C@H]3[C@H]2O)c(=O)[nH]1 [3′3′c-di-GMP, reference compound]",5.8 µM,7.7 °C,2.6 °C,,
"Nc1ncnc2c1ncn2[C@@H]1O[C@@H]2OCP(=O)(O)O[C@@H]3[C@H](O)[C@@H](OCP(=O)(O)O[C@H]2[C@H]1O)O[C@H]3n1cnc2c(N)ncnc21 [Compound 30, (1R,6R,8R,9R,10S,15R,17R,18S)-8,17-bis(6-amino-9H-purin-9-yl)-3,9,12,18-tetrahydroxy-2,5,7,11,14,16-hexaoxa-3λ^5,12λ^5-diphosphatricyclo[13.2.1.0^6,^10]octadecane-3,12-dione]",6.7 µM,,,6.4 °C,0.8 °C
Nc1ncnc2c1ncn2[C@@H]1O[C@@H]2COP(=O)(O)O[C@@H]3[C@H](O)[C@@H](COCP(=O)(O)O[C@H]2[C@H]1O)O[C@H]3n1cnc2c(N)ncnc21 [Compound 31],12.5 µM,,,5.7 °C,0.5 °C
"Nc1ncnc2c1ncn2[C@@H]1O[C@@H]2COCP(=O)(O)O[C@@H]3[C@H](O)[C@@H](COP(=O)(O)O[C@H]2[C@H]1O)O[C@H]3n1cnc2c(N)ncnc21 [Compound 32, (1R,6S,7R,8R,10R,16R,17R,19R)-8,17-bis(6-amino-9H-purin-9-yl)-4,7,14,19-tetrahydroxy-3,5,9,12,15,18-hexaoxa-4λ^5,14λ^5-diphosphatricyclo[14.2.1.0^6,^10]nonadecane-4,14-dione]",8 µM,,,5.3 °C,0.5 °C
"Nc1ncnc2c1ncn2[C@@H]1O[C@@H]2COP(=O)(O)O[C@@H]3[C@H](O)[C@@H](COCP(=O)(O)O[C@H]2[C@H]1F)O[C@H]3n1cnc2c(N)ncnc21 [Compound 33, (1R,6R,8R,9R,10R,16R,18R,19R)-8,18-bis(6-amino-9H-purin-9-yl)-9-fluoro-3,12,19-trihydroxy-2,4,7,11,14,17-hexaoxa-3λ^5,12λ^5-diphosphatricyclo[14.2.1.0^6,^10]nonadecane-3,12-dione]",2.6 µM,,,8.3 °C,1.6 °C
"Nc1nc2c(ncn2[C@@H]2C[C@@H]3COP(=O)(O)O[C@@H]4[C@@H](OCP(=O)(O)O[C@@H]2[C@@H]3O)O[C@@H](n2cnc3c(N)ncnc32)[C@@H]4O)c(=O)[nH]1 [Compound 36, (1S,6R,8R,9R,10S,15R,17R,18R)-17-(2-amino-6-oxo-6,9-dihydro-1H-purin-9-yl)-8-(6-amino-9H-purin-9-yl)-3,9,12,18-tetrahydroxy-2,5,7,11,13-pentaoxa-3λ^5,12λ^5-diphosphatricyclo[13.2.1.0^6,10]octadecane-3,12-dione]",0.18 µM,,,14.2 °C,5.8 °C
"Nc1ncnc2c1ncn2[C@@H]1O[C@@H]2OCP(=O)(O)O[C@@H]3[C@H](O)[C@@H](COP(=O)(O)O[C@H]2[C@H]1O)O[C@H]3n1cnc2c(=O)[nH]cnc21 [Compound 37, (1R,6R,8R,9R,10S,15R,17R,18R)-8-(6-amino-9H-purin-9-yl)-3,9,12,18-tetrahydroxy-17-(6-oxo-6,9-dihydro-1H-purin-9-yl)-2,5,7,11,13,16-hexaoxa-3λ^5,12λ^5 diphosphatricyclo[13.2.1.0^6,10]octadecane-3,12-dione]",0.05 µM,,,16.5 °C,8.5 °C
"Nc1nc2c(ncn2[C@@H]2O[C@@H]3COP(=O)(O)O[C@@H]4[C@@H](OCP(=O)(O)O[C@@H]2C3)O[C@@H](n2cnc3c(N)ncnc32)[C@@H]4O)c(=O)[nH]1 [Compound 38, (1R,6R,8R,9R,10S,15S,17R)-17-(2-amino-6-oxo-6,9-dihydro-1H-purin-9-yl)-8-(6-amino-9H-purin-9-yl)-3,9,12-trihydroxy-2,5,7,11,13,16-hexaoxa-3λ^5,12λ^5-diphosphatricyclo[13.2.1.0^6,10]octadecane-3,12-dione]",0.05 µM,,,16.2 °C,8.2 °C
"Nc1nc2c(ncn2[C@@H]2O[C@@H]3COP(=O)(S)O[C@@H]4[C@@H](OCP(=O)(O)O[C@@H]2[C@@H]3O)O[C@@H](n2cnc3c(N)ncnc32)[C@@H]4O)c(=O)[nH]1 (stereo partly drawn) [Compound 39, (1R,6R,8R,9R,10S,15R,17R,18R)-17-(2-amino-6-oxo-6,9-dihydro-1H-purin-9-yl)-8-(6-amino-9H-purin-9-yl)-3,9,18-trihydroxy-12-sulfanyl-2,5,7,11,13,16-hexaoxa-3λ^5,12λ^5-diphosphatricyclo[13.2.1.0^6,10]octadecane-3,12-dione]",0.08 µM,,,17.2 °C,11 °C
